The nature of data set [1]: Lipophilicity, logP of the compound. The settings on record: octanol/water.
Data set [2] in a line: Lipophilicity, logD of compound at pH 7. As to conditions: buffer.
A short description of data set [3]: Dissociation constant, pKa of the compound. Type of data set: physicochemical.
Data set [4] concerns the target Neuronal acetylcholine receptor subunit alpha-7 (Rattus norvegicus, UniProt Q05941). As to the kind of experiment: Binding affinity to rat nACh alpha7 receptor assessed as inhibition constant.
Data set [5] has as its target Neuronal acetylcholine receptor subunit alpha-7 (Homo sapiens, UniProt P36544). As to the kind of experiment: Binding affinity to human nACh alpha7 receptor assessed as inhibition constant.
Data set [6] is described as follows: Stability in human plasma incubated upto 60 mins. It is filed as ADME, cell-free. As to conditions: read-out: Stability.
The target of data set [7] is T1, Alpha-2A adrenergic receptor (Homo sapiens, UniProt P08913).
T1 sequence (P08913 whole entry): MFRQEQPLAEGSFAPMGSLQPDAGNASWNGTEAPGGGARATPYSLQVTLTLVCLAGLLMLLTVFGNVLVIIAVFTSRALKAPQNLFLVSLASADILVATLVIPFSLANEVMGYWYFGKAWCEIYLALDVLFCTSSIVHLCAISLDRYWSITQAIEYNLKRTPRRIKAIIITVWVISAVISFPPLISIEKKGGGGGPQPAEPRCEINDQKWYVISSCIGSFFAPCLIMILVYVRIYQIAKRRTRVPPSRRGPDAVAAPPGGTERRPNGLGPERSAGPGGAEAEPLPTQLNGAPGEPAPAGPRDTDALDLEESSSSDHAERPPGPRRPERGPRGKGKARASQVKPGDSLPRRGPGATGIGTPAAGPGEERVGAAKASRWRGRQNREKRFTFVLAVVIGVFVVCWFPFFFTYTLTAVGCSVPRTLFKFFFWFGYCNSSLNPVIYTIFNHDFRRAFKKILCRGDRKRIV
As to the kind of experiment: Binding affinity to alpha2A receptor (unknown origin).

In data set [8] the target is T2, Alpha-2C adrenergic receptor (Homo sapiens, UniProt P18825).
T2 sequence (P18825 whole entry): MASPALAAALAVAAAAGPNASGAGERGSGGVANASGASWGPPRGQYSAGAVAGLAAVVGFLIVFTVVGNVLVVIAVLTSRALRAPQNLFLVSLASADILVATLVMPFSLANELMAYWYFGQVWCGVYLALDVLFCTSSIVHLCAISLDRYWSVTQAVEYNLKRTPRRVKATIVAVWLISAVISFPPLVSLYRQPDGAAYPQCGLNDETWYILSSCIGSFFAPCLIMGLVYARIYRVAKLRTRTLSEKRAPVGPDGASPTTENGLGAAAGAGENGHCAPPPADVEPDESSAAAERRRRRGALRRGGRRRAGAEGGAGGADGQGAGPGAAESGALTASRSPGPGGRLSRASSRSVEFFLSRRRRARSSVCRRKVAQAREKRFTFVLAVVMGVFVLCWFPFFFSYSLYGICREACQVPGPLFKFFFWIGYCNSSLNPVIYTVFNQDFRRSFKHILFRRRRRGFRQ
Briefly: Binding affinity to alpha2C receptor (unknown origin).

Data set [9] addresses T3, Alpha-2B adrenergic receptor (Homo sapiens, UniProt P18089).
T3 sequence (P18089 whole entry): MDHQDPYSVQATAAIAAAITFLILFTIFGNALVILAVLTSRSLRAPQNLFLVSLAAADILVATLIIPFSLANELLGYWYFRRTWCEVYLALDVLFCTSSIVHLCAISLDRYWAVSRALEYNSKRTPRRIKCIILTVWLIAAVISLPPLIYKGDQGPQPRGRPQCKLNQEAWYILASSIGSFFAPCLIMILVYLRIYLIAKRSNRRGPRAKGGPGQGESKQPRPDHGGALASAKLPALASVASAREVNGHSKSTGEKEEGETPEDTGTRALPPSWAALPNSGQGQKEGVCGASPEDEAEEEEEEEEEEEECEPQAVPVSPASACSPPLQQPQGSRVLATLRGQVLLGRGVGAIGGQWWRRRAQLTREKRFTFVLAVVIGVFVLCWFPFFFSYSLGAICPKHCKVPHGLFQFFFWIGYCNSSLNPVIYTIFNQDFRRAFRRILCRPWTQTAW
As to the kind of experiment: Binding affinity to alpha2B receptor (unknown origin).

Data set [10] deals with Neuronal acetylcholine receptor; alpha4/beta2 (Homo sapiens, UniProt P17787+P43681). Briefly: Binding affinity to nACh alpha4beta2 receptor (unknown origin) assessed as inhibition constant. Type of data set: protein-complex assay.
Neuronal acetylcholine receptor; alpha4/beta2, sequence (P17787 whole entry): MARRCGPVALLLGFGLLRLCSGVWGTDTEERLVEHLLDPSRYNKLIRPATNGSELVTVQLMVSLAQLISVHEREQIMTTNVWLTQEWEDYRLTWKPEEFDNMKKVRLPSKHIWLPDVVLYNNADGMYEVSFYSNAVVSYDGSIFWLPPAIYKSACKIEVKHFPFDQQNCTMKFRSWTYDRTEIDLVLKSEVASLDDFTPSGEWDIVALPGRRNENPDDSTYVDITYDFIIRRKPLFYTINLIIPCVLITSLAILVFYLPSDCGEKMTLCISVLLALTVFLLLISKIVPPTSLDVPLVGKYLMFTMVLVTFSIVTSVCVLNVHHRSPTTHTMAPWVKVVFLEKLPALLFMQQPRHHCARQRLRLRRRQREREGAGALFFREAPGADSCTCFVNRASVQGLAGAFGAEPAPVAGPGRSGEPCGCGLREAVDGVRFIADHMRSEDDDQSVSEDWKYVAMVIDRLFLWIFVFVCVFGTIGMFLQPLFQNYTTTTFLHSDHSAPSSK
Neuronal acetylcholine receptor; alpha4/beta2, sequence (P43681 whole entry): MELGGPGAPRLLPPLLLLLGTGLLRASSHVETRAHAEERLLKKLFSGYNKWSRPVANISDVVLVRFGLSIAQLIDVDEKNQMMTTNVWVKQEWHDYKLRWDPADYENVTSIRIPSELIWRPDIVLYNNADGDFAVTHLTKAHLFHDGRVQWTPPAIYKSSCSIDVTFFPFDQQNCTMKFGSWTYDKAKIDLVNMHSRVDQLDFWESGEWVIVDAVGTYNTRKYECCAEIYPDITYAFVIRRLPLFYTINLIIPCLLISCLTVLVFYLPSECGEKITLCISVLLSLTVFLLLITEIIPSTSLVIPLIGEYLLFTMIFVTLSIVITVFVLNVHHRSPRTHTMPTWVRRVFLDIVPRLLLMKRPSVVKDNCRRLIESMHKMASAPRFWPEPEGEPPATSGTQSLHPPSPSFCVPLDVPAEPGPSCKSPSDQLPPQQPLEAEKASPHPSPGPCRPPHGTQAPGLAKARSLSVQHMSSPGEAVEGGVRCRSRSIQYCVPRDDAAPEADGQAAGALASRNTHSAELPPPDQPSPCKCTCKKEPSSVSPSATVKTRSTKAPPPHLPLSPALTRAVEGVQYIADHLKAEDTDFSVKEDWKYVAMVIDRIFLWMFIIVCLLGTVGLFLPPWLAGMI
A short description of data set [11]: Drug distribution in rat brain assessed as dissociation constant. Type of data set: ADME, tissue-based.
A short description of data set [12]: Drug distribution in rat brain assessed as maximum binding. Type of data set: ADME, tissue-based. The settings on record: in vivo.

Where only a bound is given, the exact number is not on record here.

Neuronal acetylcholine receptor subunit alpha-7 (Homo sapiens, UniProt P36544), sequence (P36544 whole entry): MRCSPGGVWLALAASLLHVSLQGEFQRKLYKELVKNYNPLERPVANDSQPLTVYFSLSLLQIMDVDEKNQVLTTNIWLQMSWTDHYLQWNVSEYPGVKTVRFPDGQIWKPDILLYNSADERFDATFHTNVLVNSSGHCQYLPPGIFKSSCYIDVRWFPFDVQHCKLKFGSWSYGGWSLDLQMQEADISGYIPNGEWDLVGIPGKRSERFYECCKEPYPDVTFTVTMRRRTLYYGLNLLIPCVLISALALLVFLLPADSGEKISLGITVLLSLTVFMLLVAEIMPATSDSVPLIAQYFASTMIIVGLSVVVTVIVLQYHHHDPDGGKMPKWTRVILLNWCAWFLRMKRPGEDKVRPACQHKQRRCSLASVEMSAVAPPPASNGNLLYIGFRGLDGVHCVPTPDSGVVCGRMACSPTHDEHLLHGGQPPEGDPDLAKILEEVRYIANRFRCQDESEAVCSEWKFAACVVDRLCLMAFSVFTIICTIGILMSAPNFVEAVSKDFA
Neuronal acetylcholine receptor subunit alpha-7 (Rattus norvegicus, UniProt Q05941), sequence (Q05941 whole entry): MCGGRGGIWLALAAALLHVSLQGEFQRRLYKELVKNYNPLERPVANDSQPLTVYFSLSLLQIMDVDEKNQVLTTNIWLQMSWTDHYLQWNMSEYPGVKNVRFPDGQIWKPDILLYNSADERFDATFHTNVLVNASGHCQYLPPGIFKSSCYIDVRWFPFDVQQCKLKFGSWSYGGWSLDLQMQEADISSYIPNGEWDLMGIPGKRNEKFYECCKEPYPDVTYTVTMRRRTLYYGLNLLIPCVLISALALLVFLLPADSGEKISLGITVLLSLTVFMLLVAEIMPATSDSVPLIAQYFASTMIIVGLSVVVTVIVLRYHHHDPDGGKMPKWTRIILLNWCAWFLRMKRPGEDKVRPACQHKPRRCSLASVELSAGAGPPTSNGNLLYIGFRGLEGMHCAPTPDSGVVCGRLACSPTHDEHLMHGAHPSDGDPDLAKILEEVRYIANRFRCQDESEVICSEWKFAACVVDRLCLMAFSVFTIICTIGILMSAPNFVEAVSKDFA

In turn, `[11CH3]c1ccc(OC(=O)N2CCN3CCC2CC3)cc1` returned a logP in data set [1] of 1.95. In data set [2], the logD was 1.89. In data set [3], this compound displayed a pKa of 8.19. The results for the Ki in data set [4] and in [5] were 22 nM and 14 nM, respectively. For the same compound, in data set [6], the remaining at 1 h is > 80%.

As for `[11CH3]OCc1cccnc1N1CCN(C[C@H]2COc3ccccc3O2)CC1` [ORM-13070 C-11], in data set [1], the logP worked out at 2.51. The pH-dependent lipophilicity (logD) in data set [2] was 1.94. Further, in data set [3], the pKa worked out at 7.23. Besides, the results for the dissociation constant Kd in [7], in data set [8] and in data set [9] were 109 nM, 3.8 nM and 23 nM, respectively.

Consider `[18F]c1ccc(-c2nnc(N3CCN4CCC3CC4)o2)cc1`, for which the logP in data set [1] amounted to 2.34. For the same compound, in data set [2], the pH-dependent lipophilicity (logD) is -0.82. Further, in data set [3], the pKa came out at 8.44. Further, the inhibition constant (Ki) in data set [10] was > 10000 nM.

Consider `[18F]c1ccc(OC[C@H]2CCN2)cn1`, for which the lipophilicity (logP) in [1] came out at 0.66. In addition, the pH-dependent lipophilicity (logD) in data set [2] is -2.02. In data set [3], this compound gave a pKa of 9.01. Besides, in [11], the Kd came out at 0.028 nM. Moreover, in [12], the Bmax is 3.7 pmol/g.

(Values after ChEMBL document CHEMBL5338767, “A Molecular Toolbox of Positron Emission Tomography Tracers for General Anesthesia Mechanism Research” (J Med Chem, 2023).)
